Where “and” joins values, the source holds several entries; their conditions need not be identical. Equal values may be shown once.
Experiment: xn = mol fraction of the nth substance listed

CC(=O)[O-].CCn1cc[n+](CC)c1 + O
viscosity [mPa·s], 100 kPa
Conditions	x2 = 0.09432	x2 = 0.2079	x2 = 0.3498	x2 = 0.453	x2 = 0.5329
298.15 K	129.4	120.3	79.4	62.7	50.4
323.15 K	38.2	36.6	26.3	21.5	17.9

CCCCN + O
viscosity
Conditions	298.15 K	303.15 K	308.15 K	313.15 K	318.15 K	323.15 K
100 kPa, x1 = 0.1	–	1.869 mPa·s	–	1.43 mPa·s	–	1.133 mPa·s
100 kPa, x1 = 0.2	–	2.115 mPa·s	–	1.604 mPa·s	–	1.25 mPa·s
100 kPa, x1 = 0.3	–	1.933 mPa·s	–	1.462 mPa·s	–	1.143 mPa·s
100 kPa, x1 = 0.4	–	1.597 mPa·s	–	1.234 mPa·s	–	0.979 mPa·s
100 kPa, x1 = 0.5	–	1.273 mPa·s	–	0.996 mPa·s	–	0.808 mPa·s
100 kPa, x1 = 0.6	–	0.993 mPa·s	–	0.796 mPa·s	–	0.654 mPa·s
100 kPa, x1 = 0.7	–	0.786 mPa·s	–	0.649 mPa·s	–	0.547 mPa·s
100 kPa, x1 = 0.8	–	0.626 mPa·s	–	0.533 mPa·s	–	0.453 mPa·s
100 kPa, x1 = 0.9	–	0.541 mPa·s	–	0.454 mPa·s	–	0.393 mPa·s
101.33 kPa, x1 = 0.0001	–	0.8019 mPa·s	0.7212 mPa·s	0.6564 mPa·s	0.6007 mPa·s	0.5542 mPa·s
101.33 kPa, x1 = 0.1	2.372 mPa·s	1.885 mPa·s	1.642 mPa·s	1.574 mPa·s and 1.441 mPa·s	1.278 mPa·s	1.142 mPa·s
101.33 kPa, x1 = 0.1998	–	2.149 mPa·s	1.861 mPa·s	1.625 mPa·s	1.433 mPa·s	1.271 mPa·s
101.33 kPa, x1 = 0.2	2.685 mPa·s	–	–	1.742 mPa·s	–	–
101.33 kPa, x1 = 0.2999	–	1.964 mPa·s	1.707 mPa·s	1.494 mPa·s	1.318 mPa·s	1.172 mPa·s
101.33 kPa, x1 = 0.3999	–	1.601 mPa·s	1.405 mPa·s	1.242 mPa·s	1.111 mPa·s	0.9871 mPa·s
101.33 kPa, x1 = 0.4	2.006 mPa·s	–	–	1.353 mPa·s	–	–
101.33 kPa, x1 = 0.5	–	1.259 mPa·s	1.118 mPa·s	0.9974 mPa·s	0.8979 mPa·s	0.8131 mPa·s
101.33 kPa, x1 = 0.5997	–	0.9797 mPa·s	0.8813 mPa·s	0.7976 mPa·s	0.726 mPa·s	0.6647 mPa·s
101.33 kPa, x1 = 0.6	1.153 mPa·s	–	–	0.842 mPa·s	–	–
101.33 kPa, x1 = 0.7	–	0.7677 mPa·s	0.701 mPa·s	0.6419 mPa·s	0.5911 mPa·s	0.5472 mPa·s
101.33 kPa, x1 = 0.7999	–	0.6277 mPa·s	0.5795 mPa·s	0.5366 mPa·s	0.4994 mPa·s	0.4656 mPa·s
101.33 kPa, x1 = 0.8	0.686 mPa·s	–	–	0.54 mPa·s	–	–
101.33 kPa, x1 = 0.9001	–	0.5178 mPa·s	0.4829 mPa·s	0.4518 mPa·s	0.4243 mPa·s	0.399 mPa·s

CC[N+](CC)(CC)Cc1ccccc1.[Cl-] + O
viscosity [mPa·s], 100 kPa
Conditions	298.15 K	303.15 K	308.15 K	313.15 K	318.15 K
x1 = 8e-05	0.8929	0.7989	0.7209	0.6322	0.5462
x1 = 0.0002	0.8948	0.8015	0.7259	0.6354	0.5509
x1 = 0.0004	0.8991	0.8041	0.7284	0.6358	0.552

CCn1ccnc1 + O
viscosity [mPa·s], 100 kPa
Conditions	298.15 K	308.15 K	318.15 K
x1 = 0.05	1.48	1.16	0.94
x1 = 0.1007	2.04	1.56	1.23
x1 = 0.1995	2.99	2.21	1.7
x1 = 0.2988	3.68	2.67	2.03
x1 = 0.3937	4.05	2.92	2.19
x1 = 0.4933	4.05	2.93	2.21
x1 = 0.6011	3.84	2.81	2.14
x1 = 0.695	3.18	2.41	1.89
x1 = 0.7956	2.65	2.07	1.67
x1 = 0.89	2.27	1.82	1.5
x1 = 0.9542	2.05	1.67	1.39

Cc1ccncc1 + O
Conditions	viscosity [mPa·s]
318.15 K, 101 kPa, x1 = 0.4	1.365

O=C(O)[C@H](O)[C@@H](O)C(=O)O + O
298.2 K, 101.33 kPa
Conditions	viscosity [mPa·s]
x1 = 0.00125	0.9157
x1 = 0.002751	0.942
x1 = 0.00453	0.9725
x1 = 0.00652	0.9964
x1 = 0.008655	1.043
x1 = 0.01037	1.046
x1 = 0.01172	1.088

O=C([O-])CC(=O)[O-].[Na+].[Na+] + O
viscosity, 101 kPa
Conditions	x1 = 9e-05	x1 = 0.00018	x1 = 0.00027	x1 = 0.00036
298.15 K	0.8932 mPa·s and 0.8932 mPa·s	0.8959 mPa·s and 0.8959 mPa·s	0.8987 mPa·s and 0.8987 mPa·s	0.9014 mPa·s and 0.9014 mPa·s
308.15 K	0.7222 mPa·s and 0.7222 mPa·s	0.7237 mPa·s and 0.7237 mPa·s	0.7253 mPa·s and 0.7253 mPa·s	0.7279 mPa·s and 0.7279 mPa·s
318.15 K	0.598 mPa·s and 0.598 mPa·s	0.6007 mPa·s and 0.6007 mPa·s	0.6021 mPa·s and 0.6021 mPa·s	0.6048 mPa·s and 0.6048 mPa·s

O=[N+]([O-])[O-].[Ag+] + O
298.15 K, 101 kPa
Conditions	viscosity [mPa·s]
x1 = 0.02589	0.99
x1 = 0.05251	1.134
x1 = 0.09523	1.451
x1 = 0.1797	2.439

O=c1[nH]cc(F)c(=O)[nH]1 + O
298.15 K, 101.3 kPa
Conditions	viscosity [mPa·s]
x1 = 3.46e-05	0.8891
x1 = 9.06e-05	0.8892
x1 = 0.000191	0.8901
x1 = 0.000303	0.8905
x1 = 0.000519	0.8917
x1 = 0.000754	0.8926
x1 = 0.000864	0.8933
x1 = 0.00108	0.8946

— the CheMixHub viscosity set
